Experimental data from patent US10973771B2, “Method of making particles for use in a pharmaceutical composition” (VECTURA LIMITED, priority 2000, dated 2021).

Assay: Fine particle fraction, capsule fired from twin stage impinger (TSI)
Type: physicochemical
Settings: 20mg capsule fired from a twin stage impinger
Experimental: The 3:1 and the 19:1 blends were then each loaded into a 20mg capsule and fired from a twin stage impinger. A sample of unprocessed salbutamol sulphate was also fired from the TSI to provide a comparison.

salbutamol sulphate
Fine Particle Fraction %: 28%
